# Measurements taken from ChEMBL document CHEMBL1201862, “PubChem BioAssay data set” (2004).
# Active and inactive are the calls of the source.
# Experiments:
# [1] = molecular target: T1, Cytochrome P450 2C9 (Homo sapiens, UniProt P11712)
# [2] = molecular target: Cytochrome P450 2D6 (Homo sapiens, UniProt P10635);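 further: CYP2D6 member of a cytochrome P450 panel assay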
# [3] = molecular target: T2, SUMO-activating enzyme (Homo sapiens, UniProt Q9UBT2); test: inhibitors of in vitro SUMOylation cascade, primary screen, biochemical, HTRF, uHTS (AID 2006); assay type: protein-complex assay
# [4] = molecular target: Induced myeloid leukemia cell differentiation protein Mcl-1 (Homo sapiens, UniProt Q07820); assay type: functional
# [5] = molecular target: T2, SUMO-activating enzyme; test: SUMOylation inhibitor hit validation, confirmation, SUMOylation inhibitor project, biochemical, AlphaScreen (AID 2018); assay type: functional
# [6] = molecular target: Phospholipase A2 (Homo sapiens, UniProt P04054); test: PLA2 enzyme inhibitors, dose response, counter-screen for ATG4B inhibitor project, biochemical, set 2 (AID 588586); assay type: functional
# [7] = molecular target: T3, Cysteine protease ATG4B (Homo sapiens, UniProt Q9Y4P1); test: ATG4B protease inhibitors, dose response, biochemical, fluorescence, set 2 (AID 588584); assay type: functional
# T3 sequence (Q9Y4P1 whole entry): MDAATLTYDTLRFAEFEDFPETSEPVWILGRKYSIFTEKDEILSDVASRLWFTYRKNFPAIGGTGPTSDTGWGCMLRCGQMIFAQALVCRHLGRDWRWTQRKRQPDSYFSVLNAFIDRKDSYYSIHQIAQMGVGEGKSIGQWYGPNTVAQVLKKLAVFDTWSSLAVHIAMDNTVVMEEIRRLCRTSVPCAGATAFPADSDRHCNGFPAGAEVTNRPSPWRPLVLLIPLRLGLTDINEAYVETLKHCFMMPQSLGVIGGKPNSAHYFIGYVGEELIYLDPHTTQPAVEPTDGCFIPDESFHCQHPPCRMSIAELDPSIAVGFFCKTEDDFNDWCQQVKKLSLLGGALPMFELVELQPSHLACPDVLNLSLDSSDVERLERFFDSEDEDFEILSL
# [8] = tested on: BJ; test: cytotoxicity toward BJ-TERT fibroblasts, dose response, cell-based, RAS-independent, luminescence (AID 1933); assay type: functional; settings: Homo sapiens
# [9] = tested on: BJ; test: cytotoxicity toward BJ-TERT-LT-ST fibroblasts, dose response, cell-based, RAS-independent, luminescence (AID 1935); assay type: functional; settings: Homo sapiens;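 further: BJ fibroblasts immortalized with TERT plus LT and ST oncogenes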
# [10] = cytotoxicity toward DRD oncogenic fibroblasts, dose response, cell-based, non-viral oncogenic, luminescence (AID 1934); assay type: functional; settings: Homo sapiens
# [11] = tested on: BJ; test: cells; assay type: functional, cell-based; settings: Homo sapiens
# [12] = molecular target: Cytochrome P450 3A4 (Homo sapiens, UniProt P08684);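 further: CYP3A4 tested as one member of a cytochrome P450 panel screen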
# [13] = molecular target: Peroxisome proliferator-activated receptor gamma/Nuclear receptor coactivator 1 (Homo sapiens, UniProt P37231); test: TR-FRET dose response biochemical High Throughput Screening assay for agonists of the steroid receptor coactivator 1 (SRC-1) recruitment by the peroxisome proliferator-activated receptor gamma (PPAR gamma): non-selective agonists. [Related pubchem assays (depositor defined):AID1300, AID1808, AID504735, AID631]; assay type: protein assay
# [14] = molecular target: Peroxisome proliferator-activated receptor gamma/Nuclear receptor coactivator 3 (Homo sapiens, UniProt P37231); test: TR-FRET dose response biochemical High Throughput Screening assay for agonists of the steroid receptor coactivator 3 (SRC-3) recruitment by the peroxisome proliferator-activated receptor gamma (PPAR gamma): non-selective agonists. [Related pubchem assays: 1301 (Confirmation screen.), 1048 (Primary screen.)]; assay type: functional
# [15] = molecular target: Peroxisome proliferator-activated receptor gamma/Nuclear receptor coactivator 2 (Homo sapiens, UniProt P37231); test: TR-FRET dose response biochemical High Throughput Screening assay for agonists of the steroid receptor coactivator 2 (SRC-2) recruitment by the peroxisome proliferator-activated receptor gamma (PPAR gamma): non-selective agonists. [Related pubchem assays: 1297, 1032 ]; assay type: functional
# [16] = molecular target: CAAX prenyl protease 1 (Saccharomyces cerevisiae S288c, UniProt P47154); test: Ste24 protease inhibitors, dose response, biochemical, S. cerevisiae, plate reader, cherry-pick (AID 488815)
# [17] = molecular target: T1, Cytochrome P450 2C9; remark: listed apart in the source
# [18] = molecular target: T4, Orexin receptor type 2 (Homo sapiens, UniProt O43614); test: Counterscreen assay for antagonists of the orexin 1 receptor (OX1R; HCRTR1): Fluorescence-based cell-based dose response assay for antagonists of the orexin 2 receptor (OX2R; HCRTR2), run by assay provider.; assay type: functional
# T4 sequence (O43614 whole entry): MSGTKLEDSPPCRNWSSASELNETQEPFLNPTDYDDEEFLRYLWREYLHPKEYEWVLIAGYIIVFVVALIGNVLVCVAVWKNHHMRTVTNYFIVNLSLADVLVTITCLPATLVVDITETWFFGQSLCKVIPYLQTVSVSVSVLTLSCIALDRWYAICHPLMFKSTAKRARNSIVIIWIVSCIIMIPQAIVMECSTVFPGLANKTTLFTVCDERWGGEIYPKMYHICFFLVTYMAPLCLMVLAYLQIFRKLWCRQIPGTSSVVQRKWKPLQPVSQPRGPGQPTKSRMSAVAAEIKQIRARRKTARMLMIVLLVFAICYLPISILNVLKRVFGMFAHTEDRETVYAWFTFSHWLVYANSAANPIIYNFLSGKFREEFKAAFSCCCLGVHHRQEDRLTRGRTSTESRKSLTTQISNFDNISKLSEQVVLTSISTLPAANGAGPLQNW
# [19] = molecular target: T5, Orexin/Hypocretin receptor type 1 (Homo sapiens, UniProt O43613); test: Fluorescence-based cell-based high throughput dose response assay for antagonists of the orexin 1 receptor (OX1R; HCRTR1). [Related pubchem assays (depositor defined):AID434989, AID435008, AID463079, AID485270, AID492963, AID492964, AID492965, AID493232, AID504717, AID504718]; assay type: functional
# T5 sequence (O43613 whole entry): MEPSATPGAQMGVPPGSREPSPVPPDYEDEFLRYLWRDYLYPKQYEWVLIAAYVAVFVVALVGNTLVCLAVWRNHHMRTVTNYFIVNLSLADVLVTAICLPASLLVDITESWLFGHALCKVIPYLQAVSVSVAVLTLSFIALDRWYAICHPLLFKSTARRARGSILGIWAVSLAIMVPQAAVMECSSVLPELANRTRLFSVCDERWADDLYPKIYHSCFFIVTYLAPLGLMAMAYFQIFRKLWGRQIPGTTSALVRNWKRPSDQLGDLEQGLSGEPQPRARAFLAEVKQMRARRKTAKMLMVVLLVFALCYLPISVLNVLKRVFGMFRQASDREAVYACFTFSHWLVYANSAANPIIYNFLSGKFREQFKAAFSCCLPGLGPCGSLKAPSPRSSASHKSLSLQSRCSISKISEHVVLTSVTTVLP
# [20] = molecular target: Photoreceptor-specific nuclear receptor (Homo sapiens, UniProt Q9Y5X4); test: NR2E3 inverse agonists, dose response, biochemical, TR-FRET (AID 463256); assay type: functional
# [21] = Counterscreen for antagonists of the orexin 1 receptor (OX1R; HCRTR1): Fluorescence-based cell-based high throughput dose response assay to identify antagonists of the parental CHO cell line. [Related pubchem assays (depositor defined):AID434989, AID435008, AID463079, AID485270, AID492963, AID492964, AID492965, AID493232, AID504699, AID504701]; assay type: functional
# [22] = molecular target: T5, Orexin/Hypocretin receptor type 1; test: Homogeneous Time Resolved Fluorescence (HTRF)-based cell-based high throughput dose response assay for antagonists of the orexin 1 receptor (OX1R; HCRTR1). [Related pubchem assays (depositor defined):AID434989, AID435008, AID463079, AID485270, AID492963, AID492964, AID492965, AID493232, AID504717, AID504718]; assay type: functional
# [23] = tested on: CHO-K1; test: Counterscreen for antagonists of the orexin 1 receptor (OX1R; HCRTR1): Homogeneous time resolved fluorescence (HTRF)-based cell-based dose response assay to identify antagonists of the parental CHO-K1 cell line. [Related pubchem assays (depositor defined):AID434989, AID435008, AID463079, AID485270, AID492963, AID492964, AID492965, AID493232, AID504699, AID504701]; assay type: functional; settings: Cricetulus griseus;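 further: potency for inhibition of ATP-stimulated IP1 production as antagonists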
# [24] = molecular target: T4, Orexin receptor type 2; test: Counterscreen assay for antagonists of the orexin 1 receptor (OX1R; HCRTR1): Homogeneous Time Resolved Fluorescence (HTRF)-based cell-based dose response assay for antagonists of the orexin 2 receptor (OX2R; HCRTR2), run by assay provider.; assay type: functional
# [25] = molecular target: Peroxisome proliferator-activated receptor gamma/Nuclear receptor corepressor 2 (Homo sapiens, UniProt P37231+Q9Y618); test: Counterscreen for NR2E3 inverse agonists: TR-FRET-based biochemical high throughput dose response assay to identify inverse agonists of the interaction between peroxisome proliferator-activated receptor gamma (PPARg) and nuclear receptor co-repressor 2 (NCOR2).; assay type: functional
# [26] = molecular target: T6, Bcl-2-related protein A1 (Mus musculus, UniProt Q07440); assay type: functional;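 further: confirmatory dose–response counterscreen on Bfl-1, used to check hits from a UBC13 polyubiquitin inhibitor campaign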
# T6 sequence (Q07440 whole entry): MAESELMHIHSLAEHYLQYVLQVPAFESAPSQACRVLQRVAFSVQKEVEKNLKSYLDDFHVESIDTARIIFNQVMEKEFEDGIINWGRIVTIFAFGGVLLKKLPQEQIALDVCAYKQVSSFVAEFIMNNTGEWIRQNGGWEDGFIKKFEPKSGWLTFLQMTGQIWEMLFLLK
# [27] = molecular target: T7, Ubiquitin-conjugating enzyme E2 N (Homo sapiens, UniProt P61088); assay type: functional
# T7 sequence (P61088 whole entry): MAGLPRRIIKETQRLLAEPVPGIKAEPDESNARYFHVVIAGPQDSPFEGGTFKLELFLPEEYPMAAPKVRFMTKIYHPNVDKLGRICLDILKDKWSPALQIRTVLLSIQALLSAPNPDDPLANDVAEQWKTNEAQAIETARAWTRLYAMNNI
# [28] = inhibitors of intracellular T. cruzi replication, confirmation, NIH3T3 host cells, beta-gal luminescence (AID 2044); assay type: functional, cell-based;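 further: intracellular parasites grown in NIH/3T3 mouse fibroblasts as host cells; luminescent beta-galactosidase reporter signal from transgenic T. cruzi replicating inside host cells; inhibitors lower the luminescence signal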
# [29] = cytotoxicity toward NIH3T3 fibroblasts, dose response, counter-screen, cell-based, ATP luminescence, mouse fibroblasts (AID 2010); assay type: functional;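 further: cells exposed to compound for about 90 hours before reading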
# [30] = miR-122 activators in hepatoma reporter cells, dose response, cell-based, Huh7 psiCHECK-miR122, Renilla luciferase, cherry-picked (AID 651956); assay type: functional;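 further: huh7 hepatoma cells stably carrying a psiCHECK-2 miR-122 sensor plasmid; renilla luciferase signal reporting endogenous miR-122 activity after 48 h compound exposure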
# [31] = molecular target: T7, Ubiquitin-conjugating enzyme E2 N; assay type: functional; remark: listed apart in the source
# [32] = HEK293T cytotoxicity, dose response, cytotoxicity control for miR-122 modulator project, cell-based, activator set, cherry-pick (AID 720690); assay type: functional;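 further: HEK293T human cells scored for general mammalian cytotoxicity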
# T1 sequence (P11712 whole entry): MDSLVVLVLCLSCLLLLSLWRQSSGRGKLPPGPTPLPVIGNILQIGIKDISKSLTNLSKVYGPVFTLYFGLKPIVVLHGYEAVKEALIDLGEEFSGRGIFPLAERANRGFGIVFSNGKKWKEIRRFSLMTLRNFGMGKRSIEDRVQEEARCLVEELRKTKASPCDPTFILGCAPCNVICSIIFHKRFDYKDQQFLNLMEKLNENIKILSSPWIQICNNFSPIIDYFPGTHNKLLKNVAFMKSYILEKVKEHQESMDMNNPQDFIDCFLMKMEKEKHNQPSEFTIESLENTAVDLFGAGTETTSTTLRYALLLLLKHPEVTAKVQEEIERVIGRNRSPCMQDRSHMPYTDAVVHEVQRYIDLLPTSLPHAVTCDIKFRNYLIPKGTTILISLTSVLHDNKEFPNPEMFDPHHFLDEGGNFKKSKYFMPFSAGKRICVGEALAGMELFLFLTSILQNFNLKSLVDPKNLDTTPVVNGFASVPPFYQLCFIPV
# CAAX prenyl protease 1, sequence (P47154 whole entry): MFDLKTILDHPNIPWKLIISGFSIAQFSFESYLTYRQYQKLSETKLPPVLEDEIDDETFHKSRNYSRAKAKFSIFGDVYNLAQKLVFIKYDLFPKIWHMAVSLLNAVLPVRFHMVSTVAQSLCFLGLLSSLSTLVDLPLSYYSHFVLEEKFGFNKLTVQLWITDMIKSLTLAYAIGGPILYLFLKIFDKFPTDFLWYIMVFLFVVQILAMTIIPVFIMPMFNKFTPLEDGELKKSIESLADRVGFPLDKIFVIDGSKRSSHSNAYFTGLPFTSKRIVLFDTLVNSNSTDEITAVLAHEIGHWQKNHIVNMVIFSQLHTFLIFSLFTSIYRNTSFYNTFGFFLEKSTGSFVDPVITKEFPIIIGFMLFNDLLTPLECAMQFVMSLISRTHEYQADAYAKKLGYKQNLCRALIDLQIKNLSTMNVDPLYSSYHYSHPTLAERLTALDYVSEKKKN
# Peroxisome proliferator-activated receptor gamma/Nuclear receptor coactivator 3, sequence (P37231 whole entry): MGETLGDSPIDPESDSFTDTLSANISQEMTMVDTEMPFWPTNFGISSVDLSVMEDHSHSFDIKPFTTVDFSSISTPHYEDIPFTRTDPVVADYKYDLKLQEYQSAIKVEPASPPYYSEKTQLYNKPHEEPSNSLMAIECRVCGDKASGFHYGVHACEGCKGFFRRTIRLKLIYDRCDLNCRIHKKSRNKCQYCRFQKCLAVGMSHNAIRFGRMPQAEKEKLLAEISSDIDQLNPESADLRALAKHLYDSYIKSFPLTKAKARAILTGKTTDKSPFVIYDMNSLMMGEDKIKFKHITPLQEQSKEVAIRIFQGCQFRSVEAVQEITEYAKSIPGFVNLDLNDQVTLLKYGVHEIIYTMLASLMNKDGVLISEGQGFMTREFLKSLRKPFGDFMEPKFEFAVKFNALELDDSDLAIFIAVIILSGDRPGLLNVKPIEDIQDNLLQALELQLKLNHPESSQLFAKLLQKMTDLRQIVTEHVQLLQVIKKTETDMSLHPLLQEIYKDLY
# Peroxisome proliferator-activated receptor gamma/Nuclear receptor coactivator 3, sequence (Q9Y6Q9 whole entry, further chain): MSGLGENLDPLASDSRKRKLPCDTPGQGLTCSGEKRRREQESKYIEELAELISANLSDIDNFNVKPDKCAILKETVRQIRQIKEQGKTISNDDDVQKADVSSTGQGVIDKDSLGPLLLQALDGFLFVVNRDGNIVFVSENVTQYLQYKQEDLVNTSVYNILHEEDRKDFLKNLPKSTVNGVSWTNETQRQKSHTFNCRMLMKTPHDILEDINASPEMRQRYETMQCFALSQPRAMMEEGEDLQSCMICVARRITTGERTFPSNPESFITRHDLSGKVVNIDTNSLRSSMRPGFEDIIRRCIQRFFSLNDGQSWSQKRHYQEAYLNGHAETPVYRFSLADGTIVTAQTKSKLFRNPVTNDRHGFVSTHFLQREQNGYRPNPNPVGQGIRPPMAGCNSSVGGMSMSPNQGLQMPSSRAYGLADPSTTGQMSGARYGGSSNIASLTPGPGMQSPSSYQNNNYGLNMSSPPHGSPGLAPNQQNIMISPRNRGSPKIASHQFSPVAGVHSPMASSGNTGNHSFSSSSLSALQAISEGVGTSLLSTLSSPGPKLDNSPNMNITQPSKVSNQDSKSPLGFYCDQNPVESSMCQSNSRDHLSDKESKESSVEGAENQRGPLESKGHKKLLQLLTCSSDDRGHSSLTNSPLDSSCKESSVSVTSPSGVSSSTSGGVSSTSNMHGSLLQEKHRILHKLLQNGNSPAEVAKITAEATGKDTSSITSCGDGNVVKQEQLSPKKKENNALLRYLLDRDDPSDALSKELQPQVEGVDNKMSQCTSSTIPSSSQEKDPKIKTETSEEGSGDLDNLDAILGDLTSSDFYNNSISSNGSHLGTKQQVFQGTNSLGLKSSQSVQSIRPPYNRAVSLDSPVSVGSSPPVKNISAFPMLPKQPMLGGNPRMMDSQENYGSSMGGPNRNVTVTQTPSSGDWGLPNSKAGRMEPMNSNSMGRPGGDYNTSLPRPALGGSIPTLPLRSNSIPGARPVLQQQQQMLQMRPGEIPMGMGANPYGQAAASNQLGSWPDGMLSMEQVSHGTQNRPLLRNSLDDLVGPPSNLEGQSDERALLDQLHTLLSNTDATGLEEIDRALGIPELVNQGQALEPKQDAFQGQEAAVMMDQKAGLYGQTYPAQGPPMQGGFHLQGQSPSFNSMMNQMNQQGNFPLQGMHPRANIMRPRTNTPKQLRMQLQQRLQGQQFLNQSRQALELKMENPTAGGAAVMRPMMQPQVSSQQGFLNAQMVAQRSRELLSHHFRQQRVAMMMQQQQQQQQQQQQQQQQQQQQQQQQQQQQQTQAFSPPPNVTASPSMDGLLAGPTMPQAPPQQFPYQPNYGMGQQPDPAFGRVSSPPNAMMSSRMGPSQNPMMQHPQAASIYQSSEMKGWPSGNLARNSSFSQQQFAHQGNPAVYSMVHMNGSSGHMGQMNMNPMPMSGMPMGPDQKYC
# Peroxisome proliferator-activated receptor gamma/Nuclear receptor coactivator 2, sequence (P37231 whole entry): as the sequence (P37231 whole entry) above
# Peroxisome proliferator-activated receptor gamma/Nuclear receptor coactivator 2, sequence (Q15596 whole entry, further chain): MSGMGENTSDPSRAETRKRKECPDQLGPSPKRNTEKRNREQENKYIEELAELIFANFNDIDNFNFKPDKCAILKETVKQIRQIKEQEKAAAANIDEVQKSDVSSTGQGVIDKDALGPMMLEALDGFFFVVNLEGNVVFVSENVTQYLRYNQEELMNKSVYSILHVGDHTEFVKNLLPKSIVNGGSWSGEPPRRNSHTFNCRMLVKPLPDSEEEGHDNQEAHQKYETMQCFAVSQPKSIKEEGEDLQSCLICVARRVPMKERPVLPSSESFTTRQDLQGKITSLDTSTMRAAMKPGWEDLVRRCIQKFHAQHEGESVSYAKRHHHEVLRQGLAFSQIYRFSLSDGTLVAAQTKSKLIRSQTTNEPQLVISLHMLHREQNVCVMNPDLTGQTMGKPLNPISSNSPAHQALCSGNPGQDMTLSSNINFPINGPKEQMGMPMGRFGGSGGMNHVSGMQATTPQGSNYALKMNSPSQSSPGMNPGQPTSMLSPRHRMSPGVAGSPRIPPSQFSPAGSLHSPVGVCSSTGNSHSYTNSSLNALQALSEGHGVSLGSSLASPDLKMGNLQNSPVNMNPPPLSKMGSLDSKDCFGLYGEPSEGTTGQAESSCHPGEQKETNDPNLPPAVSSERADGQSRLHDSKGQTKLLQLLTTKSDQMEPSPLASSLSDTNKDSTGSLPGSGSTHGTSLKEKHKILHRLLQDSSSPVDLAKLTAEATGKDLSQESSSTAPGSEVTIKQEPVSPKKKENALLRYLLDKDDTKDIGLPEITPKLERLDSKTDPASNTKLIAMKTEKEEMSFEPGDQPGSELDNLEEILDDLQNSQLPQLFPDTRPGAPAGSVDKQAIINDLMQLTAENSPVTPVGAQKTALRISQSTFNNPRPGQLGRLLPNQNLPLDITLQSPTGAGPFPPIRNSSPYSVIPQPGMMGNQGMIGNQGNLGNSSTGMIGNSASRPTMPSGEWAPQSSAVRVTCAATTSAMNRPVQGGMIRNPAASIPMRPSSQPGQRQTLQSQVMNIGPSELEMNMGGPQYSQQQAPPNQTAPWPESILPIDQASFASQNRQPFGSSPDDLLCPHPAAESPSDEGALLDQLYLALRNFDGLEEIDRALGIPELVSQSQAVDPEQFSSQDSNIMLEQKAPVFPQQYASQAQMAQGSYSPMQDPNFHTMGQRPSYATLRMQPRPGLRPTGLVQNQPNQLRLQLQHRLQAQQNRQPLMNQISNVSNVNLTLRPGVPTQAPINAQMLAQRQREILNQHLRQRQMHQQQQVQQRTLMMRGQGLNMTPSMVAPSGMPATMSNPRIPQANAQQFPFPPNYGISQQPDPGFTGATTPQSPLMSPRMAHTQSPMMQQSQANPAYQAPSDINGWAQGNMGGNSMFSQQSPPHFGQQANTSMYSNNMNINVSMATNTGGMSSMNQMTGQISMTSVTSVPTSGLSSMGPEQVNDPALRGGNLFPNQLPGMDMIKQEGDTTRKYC
# Phospholipase A2, sequence (P04054 whole entry): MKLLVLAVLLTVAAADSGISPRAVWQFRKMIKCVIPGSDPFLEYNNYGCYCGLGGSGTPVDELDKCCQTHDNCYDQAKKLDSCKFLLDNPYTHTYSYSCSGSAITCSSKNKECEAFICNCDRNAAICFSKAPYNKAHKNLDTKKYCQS
structure (smiles),measurement,setting,value
CC(C)c1ccc(C(O)(C(=O)O)c2ccc(C(C)C)cc2)cc1,AC50,[1],3.98 µM (inconclusive)
same,AC50,[2],inconclusive
COc1ccc(/C=C2/SC(=S)N(c3ccc(S(=O)(=O)Nc4nccs4)cc3)C2=O)cc1,IC50,[3],5.9 µM (active)
same,IC50,[4],1.98 µM (active)
same,IC50,[5],1.18 µM (active)
CC1=Nc2cc(C(=O)NCc3ccco3)ccc2Sc2ccc(C)cc21,IC50,[6],74.1 µM (inactive)
same,IC50,[7],77.5 µM (inactive)
same,EC50,[8],2.33 µM (inconclusive)
same,EC50,[9],1.95 µM (active)
same,EC50,[10],2.73 µM (inconclusive)
same,EC50,[11],2.76 µM (active)
Br/C(=N\N=c1/nn[nH][nH]1)c1ccncc1,AC50,[2],inconclusive
same,AC50,[12],5.01 µM (inconclusive)
O=c1c2ccccc2c(-c2nnc(S)o2)nn1Cc1ccccc1,EC50,[13],10.3 µM (inactive)
same,EC50,[14],63.6 µM (not active)
same,EC50,[15],11.6 µM (not active)
Cc1cc(C)cc(N2CC(=O)C(c3nc(O)c4ccccc4n3)=C2N)c1,AC50,[16],14.7 µM (active)
COc1ccccc1C(=O)Nc1cc2c(ccc3ccccc32)oc1=O,AC50,[17],inconclusive
NS(=O)(=O)c1ccc(CNC(=O)c2cc(-c3ccccn3)nc3ccc(Cl)cc23)cc1,IC50,[18],30.1 µM (inactive)
same,IC50,[19],> 49.7 µM (inactive)
same,IC50,[20],> 4.43 µM (active)
same,IC50,[21],> 49.7 µM (inactive)
same,IC50,[22],2.46 µM (active)
same,EC50,[13],6.13 µM (active)
same,IC50,[23],> 66.2 µM (inactive)
same,IC50,[24],> 50 µM (inactive)
same,IC50,[25],> 39.9 µM (not active)
same,EC50,[14],17.6 µM (not active)
same,EC50,[15],5.82 µM (active)
CCN(CC)CCNC(=O)c1ccc(NC(=O)c2cn(-c3ccc(F)cc3)nc2-c2cccc(OC)c2)cc1,IC50,[26],> 20 µM (inactive)
same,IC50,[27],8.8 µM (active)
same,EC50,[28],3.25 µM (active)
same,EC50,[29],> 60 µM (not active)
same,AC50,[30],11.1 µM (active)
same,IC50,[31],14.6 µM (active)
same,AC50,[32],15.8 µM (active)
CCOc1ccccc1Oc1coc2cc(OC)ccc2c1=O,AC50,[17],inconclusive
COc1cc(OC)cc(-c2ncc3ccccn23)c1,AC50,[16],5.47 µM (active)
